Assay results published in the NIST ThermoML archive (doi:10.1016/j.jct.2013.01.005).
Numbers after ± are expanded uncertainties.

Experiment: activity coefficient (dimensionless); of the first substance listed, at infinite dilution; xn = mol fraction of the nth substance listed
Details: 101 kPa, Liquid, Chromatography, x1 = 0

Structure (SMILES) | activity coefficient (308.15 K) | activity coefficient (318.15 K) | activity coefficient (328.15 K) | activity coefficient (338.15 K) | activity coefficient (348.15 K) | activity coefficient (358.15 K)
CCO [ethanol] + CCCCC[N+]1(C)CCCCC1.O=S(=O)([N-]S(=O)(=O)C(F)(F)F)C(F)(F)F | 1.79 ± 0.12 | 1.58 ± 0.1 | 1.46 ± 0.1 | 1.35 ± 0.09 | 1.27 ± 0.08 | 1.18 ± 0.08
CCCCO [butan-1-ol] + CCCCCC[N+]1(C)CCCCC1.O=S(=O)([N-]S(=O)(=O)C(F)(F)F)C(F)(F)F | 2.4 ± 0.16 | 2.13 ± 0.14 | 1.93 ± 0.13 | 1.76 ± 0.12 | 1.64 ± 0.11 | 1.52 ± 0.1
O [water] + CCCCCC[N+]1(C)CCCCC1.O=S(=O)([N-]S(=O)(=O)C(F)(F)F)C(F)(F)F | 5.31 ± 0.36 | 4.46 ± 0.3 | 3.81 ± 0.26 | 3.26 ± 0.22 | 2.8 ± 0.19 | 2.45 ± 0.17
C=CCCCCCCCC [1-decene] + CCCCC[N+]1(C)CCCCC1.O=S(=O)([N-]S(=O)(=O)C(F)(F)F)C(F)(F)F | 17.1 ± 1.2 | 16.5 ± 1.1 | 15.9 ± 1.1 | 15.5 ± 1.1 | 15.3 ± 1 | 14.6 ± 1
CCC(C)(C)C [2,2-dimethylbutane] + CCCCC[N+]1(C)CCCCC1.O=S(=O)([N-]S(=O)(=O)C(F)(F)F)C(F)(F)F | – | 7.94 ± 0.54 | 7.7 ± 0.53 | 7.34 ± 0.5 | 7.04 ± 0.48 | 6.86 ± 0.47
C=CCCCC [hex-1-ene] + CCCCC[N+]1(C)CCCCC1.O=S(=O)([N-]S(=O)(=O)C(F)(F)F)C(F)(F)F | 5.52 ± 0.38 | 5.31 ± 0.36 | 5.13 ± 0.35 | 5 ± 0.34 | 4.92 ± 0.34 | 4.8 ± 0.33
CCCCCCC [heptane] + CCCCCC[N+]1(C)CCCCC1.O=S(=O)([N-]S(=O)(=O)C(F)(F)F)C(F)(F)F | 10.2 ± 0.7 | 9.81 ± 0.67 | 9.38 ± 0.64 | 8.99 ± 0.61 | 8.68 ± 0.59 | 8.2 ± 0.56
CCCOCCC [dipropyl ether] + CCCCC[N+]1(C)CCCCC1.O=S(=O)([N-]S(=O)(=O)C(F)(F)F)C(F)(F)F | 4.17 ± 0.28 | 4.13 ± 0.28 | 4.05 ± 0.28 | 4.02 ± 0.27 | 3.98 ± 0.27 | 3.96 ± 0.27
Cc1ccccc1C [1,2-dimethylbenzene] + CCCCCC[N+]1(C)CCCCC1.O=S(=O)([N-]S(=O)(=O)C(F)(F)F)C(F)(F)F | 1.04 ± 0.07 | 1.08 ± 0.07 | 1.1 ± 0.07 | 1.13 ± 0.07 | 1.16 ± 0.07 | 1.18 ± 0.08
C1CCCCCC1 [cycloheptane] + CCCCCC[N+]1(C)CCCCC1.O=S(=O)([N-]S(=O)(=O)C(F)(F)F)C(F)(F)F | 6.23 ± 0.42 | 6.01 ± 0.41 | 5.77 ± 0.39 | 5.52 ± 0.38 | 5.32 ± 0.36 | 5.08 ± 0.35
O [water] + CCCCC[N+]1(C)CCCCC1.O=S(=O)([N-]S(=O)(=O)C(F)(F)F)C(F)(F)F | 5.05 ± 0.34 | 4.19 ± 0.29 | 3.7 ± 0.25 | 3.18 ± 0.22 | 2.78 ± 0.19 | 2.44 ± 0.17
CCCC(C)=O [pentan-2-one] + CCCCCC[N+]1(C)CCCCC1.O=S(=O)([N-]S(=O)(=O)C(F)(F)F)C(F)(F)F | 0.573 ± 0.041 | 0.581 ± 0.041 | 0.596 ± 0.042 | 0.613 ± 0.043 | 0.632 ± 0.044 | 0.646 ± 0.044
CCCCCCCCC [nonane] + CCCCCC[N+]1(C)CCCCC1.O=S(=O)([N-]S(=O)(=O)C(F)(F)F)C(F)(F)F | 16.9 ± 1.2 | 16.4 ± 1.1 | 15.7 ± 1.1 | 15.3 ± 1 | 14.6 ± 1 | 14.1 ± 1
CCCCCC [hexane] + CCCCC[N+]1(C)CCCCC1.O=S(=O)([N-]S(=O)(=O)C(F)(F)F)C(F)(F)F | 9.9 ± 0.68 | 9.5 ± 0.65 | 8.9 ± 0.61 | 8.45 ± 0.58 | 8.19 ± 0.56 | 7.92 ± 0.54
Cc1ccccc1 [toluene] + CCCCC[N+]1(C)CCCCC1.O=S(=O)([N-]S(=O)(=O)C(F)(F)F)C(F)(F)F | 0.91 ± 0.058 | 0.919 ± 0.058 | 0.955 ± 0.06 | 0.975 ± 0.061 | 1.01 ± 0.06 | 1.05 ± 0.07
CC(C)=O [acetone] + CCCCCC[N+]1(C)CCCCC1.O=S(=O)([N-]S(=O)(=O)C(F)(F)F)C(F)(F)F | 0.421 ± 0.035 | 0.429 ± 0.035 | 0.436 ± 0.035 | 0.444 ± 0.036 | 0.455 ± 0.036 | 0.46 ± 0.036
CC1CCCCC1 [methylcyclohexane] + CCCCCC[N+]1(C)CCCCC1.O=S(=O)([N-]S(=O)(=O)C(F)(F)F)C(F)(F)F | 6.24 ± 0.43 | 6.05 ± 0.41 | 5.83 ± 0.4 | 5.59 ± 0.38 | 5.4 ± 0.37 | 5.2 ± 0.35
Cc1cccc(C)c1 [1,3-dimethylbenzene] + CCCCCC[N+]1(C)CCCCC1.O=S(=O)([N-]S(=O)(=O)C(F)(F)F)C(F)(F)F | 1.14 ± 0.07 | 1.16 ± 0.07 | 1.19 ± 0.08 | 1.23 ± 0.08 | 1.27 ± 0.08 | 1.29 ± 0.08
Cc1ccc(C)cc1 [1,4-dimethylbenzene] + CCCCC[N+]1(C)CCCCC1.O=S(=O)([N-]S(=O)(=O)C(F)(F)F)C(F)(F)F | 1.16 ± 0.07 | 1.24 ± 0.08 | 1.28 ± 0.08 | 1.32 ± 0.09 | 1.37 ± 0.09 | 1.4 ± 0.09
CCO [ethanol] + CCCCCC[N+]1(C)CCCCC1.O=S(=O)([N-]S(=O)(=O)C(F)(F)F)C(F)(F)F | 1.81 ± 0.12 | 1.63 ± 0.11 | 1.49 ± 0.1 | 1.37 ± 0.09 | 1.27 ± 0.08 | 1.18 ± 0.08
Cc1ccc(C)cc1 [1,4-dimethylbenzene] + CCCCCC[N+]1(C)CCCCC1.O=S(=O)([N-]S(=O)(=O)C(F)(F)F)C(F)(F)F | 1.14 ± 0.07 | 1.17 ± 0.07 | 1.2 ± 0.08 | 1.24 ± 0.08 | 1.28 ± 0.08 | 1.3 ± 0.08
C1CCOC1 [tetrahydrofuran] + CCCCC[N+]1(C)CCCCC1.O=S(=O)([N-]S(=O)(=O)C(F)(F)F)C(F)(F)F | 0.617 ± 0.043 | 0.627 ± 0.043 | 0.641 ± 0.044 | 0.653 ± 0.045 | 0.667 ± 0.045 | 0.682 ± 0.046
C=CCCCCC [1-heptene] + CCCCC[N+]1(C)CCCCC1.O=S(=O)([N-]S(=O)(=O)C(F)(F)F)C(F)(F)F | 7.42 ± 0.51 | 7.12 ± 0.49 | 6.88 ± 0.47 | 6.67 ± 0.45 | 6.48 ± 0.44 | 6.31 ± 0.43
